Assays:
Format in all cases: in vivo
[1] = system: barnyardgrass (Echinochloa crus-galli); assay: Test B flooded paddy test, barnyardgrass; details: 250 g ai/ha, Flood; visual rating after 13 to 15 days; scale 0 to 100, 0 is no effect, 100 is complete control
How it was run: (§1)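 Plants grown to the 2-leaf stage; pots flooded to 3 cm above soil and compounds applied directly into the paddy water, depth held throughout. After 13 to 15 days in the greenhouse, injury was rated visually against untreated controls on a 0–100 scale (0 no effect, 100 complete control).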

[2] = system: barnyardgrass (Echinochloa crus-galli); assay: Test A preemergence, barnyardgrass; details: Preemergence, 0 to 100 scale (0 no effect, 100 complete control)
How it was run: (§2)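 Plants grown in pots of loam blended with sand were treated either before emergence, via directed soil spray, or after emergence at the one- to two-leaf stage. Following about 10 days in the greenhouse, each treatment was visually compared with untreated controls and rated from 0 (no effect) to 100 (complete control).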

kochia (Kochia scoparia) [3] = assay: Test A postemergence, kochia; details: postemergence, 0 to 100 scale, 0 is no effect, 100 is complete control, approximately 10 days
How it was run: as §2

corn (Zea mays) = assay: Test A postemergence, corn; details: postemergence, 0 to 100 scale, 0 is no effect, 100 is complete control, approximately 10 days
How it was run: as §2

[4] = system: ryegrass, Italian (Italian ryegrass, Lolium multiflorum); assay: Test A preemergence, Italian ryegrass; details: Preemergence, 0 to 100 scale (0 no effect, 100 complete control)
How it was run: as §2

[5] = system: ragweed (common ragweed, Ambrosia elatior); assay: Test A postemergence, ragweed; details: postemergence, 0 to 100 scale, 0 is no effect, 100 is complete control, approximately 10 days
How it was run: as §2

[6] = system: sedge, umbrella (small-flower umbrella sedge, Cyperus difformis); assay: Test B flooded paddy test, umbrella sedge; details: 250 g ai/ha, Flood; visual rating after 13 to 15 days; scale 0 to 100, 0 is no effect, 100 is complete control
How it was run: as §1

[7] = system: pigweed (Amaranthus retroflexus); assay: Test A preemergence, pigweed; details: Preemergence, 0 to 100 scale (0 no effect, 100 complete control)
How it was run: as §2

kochia (Kochia scoparia) [8] = assay: Test A preemergence, kochia; details: Preemergence, 0 to 100 scale (0 no effect, 100 complete control)
How it was run: as §2

[9] = system: foxtail, giant (giant foxtail, Setaria faberii); assay: Test A preemergence, giant foxtail; details: Preemergence, 0 to 100 scale (0 no effect, 100 complete control)
How it was run: as §2

[10] = system: foxtail, giant (giant foxtail, Setaria faberii); assay: Test A postemergence, giant foxtail; details: postemergence, 0 to 100 scale, 0 is no effect, 100 is complete control, approximately 10 days
How it was run: as §2

[11] = system: ragweed (common ragweed, Ambrosia elatior); assay: Test A preemergence, ragweed; details: Preemergence, 0 to 100 scale (0 no effect, 100 complete control)
How it was run: as §2

[12] = system: blackgrass (Alopecurus myosuroides); assay: Test A postemergence, blackgrass; details: postemergence, 0 to 100 scale, 0 is no effect, 100 is complete control, approximately 10 days
How it was run: as §2

[13] = system: galium (catchweed bedstraw, Galium aparine); assay: Test A postemergence, galium; details: postemergence, 0 to 100 scale, 0 is no effect, 100 is complete control, approximately 10 days
How it was run: as §2

[14] = system: ducksalad (Heteranthera limosa); assay: Test B flooded paddy test, ducksalad; details: 250 g ai/ha, Flood; visual rating after 13 to 15 days; scale 0 to 100, 0 is no effect, 100 is complete control
How it was run: as §1

[15] = system: ryegrass, Italian (Italian ryegrass, Lolium multiflorum); assay: Test A postemergence, Italian ryegrass; details: postemergence, 0 to 100 scale, 0 is no effect, 100 is complete control, approximately 10 days
How it was run: as §2

[16] = system: barnyardgrass (Echinochloa crus-galli); assay: Test A postemergence, barnyardgrass; details: postemergence, 0 to 100 scale, 0 is no effect, 100 is complete control, approximately 10 days
How it was run: as §2

[17] = system: wheat (Triticum aestivum); assay: Test A postemergence, wheat; details: postemergence, 0 to 100 scale, 0 is no effect, 100 is complete control, approximately 10 days
How it was run: as §2

[18] = system: pigweed (Amaranthus retroflexus); assay: Test A postemergence, pigweed; details: postemergence, 0 to 100 scale, 0 is no effect, 100 is complete control, approximately 10 days
How it was run: as §2

rice (Oryza sativa) = assay: Test B flooded paddy test, rice; details: 250 g ai/ha, Flood; visual rating after 13 to 15 days; scale 0 to 100, 0 is no effect, 100 is complete control
How it was run: as §1

Row | Compound | Plant response rating, Barnyardgrass [1] | Plant response rating, Barnyardgrass ([2]; 125 g ai/ha) | Plant response rating, Kochia (kochia (Kochia scoparia) [3]; 125 g ai/ha) | Plant response rating, Corn (corn (Zea mays); 125 g ai/ha) | Plant response rating, Ryegrass, Italian ([4]; 125 g ai/ha) | Plant response rating, Ragweed ([5]; 125 g ai/ha) | Plant response rating, Sedge, Umbrella [6] | Plant response rating, Pigweed ([7]; 125 g ai/ha) | Plant response rating, Kochia (kochia (Kochia scoparia) [8]; 125 g ai/ha) | Plant response rating, Foxtail, Giant ([9]; 125 g ai/ha) | Plant response rating, Foxtail, Giant ([10]; 125 g ai/ha) | Plant response rating, Ragweed ([11]; 125 g ai/ha) | Plant response rating, Blackgrass ([12]; 125 g ai/ha) | Plant response rating, Galium ([13]; 125 g ai/ha) | Plant response rating, Ducksalad [14] | Plant response rating, Ryegrass, Italian ([15]; 125 g ai/ha) | Plant response rating, Barnyardgrass ([16]; 125 g ai/ha) | Plant response rating, Wheat ([17]; 125 g ai/ha) | Plant response rating, Pigweed ([18]; 125 g ai/ha) | Plant response rating, Rice (rice (Oryza sativa)) | also measured
1 | FC(F)(F)CCOc1c(Cl)cccc1Oc1ncc(Cl)cn1 [Compound 43] | 0 | 70 | 80 | 10 | 10 | 0 | 90 | 100 | 90 | 100 | 40 | 0 | 30 | 60 | 100 | 0 | 30 | 0 | 90 | 50 | Plant response rating, Barnyardgrass ([2]; 31 g ai/ha): 20; Plant response rating, Kochia (kochia (Kochia scoparia) [3]; 31 g ai/ha): 30; Plant response rating, Corn (corn (Zea mays); 31 g ai/ha): 10; Plant response rating, Ryegrass, Italian ([4]; 31 g ai/ha): 0; Plant response rating, Ragweed ([5]; 31 g ai/ha): 0; Plant response rating, Pigweed ([7]; 31 g ai/ha): 40; Plant response rating, Kochia (kochia (Kochia scoparia) [8]; 31 g ai/ha): 0; Plant response rating, Foxtail, Giant ([9]; 31 g ai/ha): 10; Plant response rating, Foxtail, Giant ([10]; 31 g ai/ha): 10; Plant response rating, Ragweed ([11]; 31 g ai/ha): 0; Plant response rating, Blackgrass ([12]; 31 g ai/ha): 0; Plant response rating, Galium ([13]; 31 g ai/ha): 20; Plant response rating, Ryegrass, Italian ([15]; 31 g ai/ha): 0; Plant response rating, Barnyardgrass ([16]; 31 g ai/ha): 0; Plant response rating, Wheat ([17]; 31 g ai/ha): 0; Plant response rating, Pigweed ([18]; 31 g ai/ha): 50
2 | N#Cc1cccc(Oc2ncc(Cl)cn2)c1OCc1ccc(C(F)(F)F)cc1 [Compound 20] | 0 | 20 | 50 | 10 | 0 | 20 | 0 | 30 | 0 | 90 | 10 | 0 | 0 | 30 | 0 | 0 | 10 | 10 | 90 | 0 | Plant response rating, Barnyardgrass ([2]; 500 g ai/ha): 30; Plant response rating, Kochia (kochia (Kochia scoparia) [3]; 500 g ai/ha): 100; Plant response rating, Corn (corn (Zea mays); 500 g ai/ha): 20; Plant response rating, Ryegrass, Italian ([4]; 500 g ai/ha): 20; Plant response rating, Ragweed ([5]; 500 g ai/ha): 30; Plant response rating, Pigweed ([7]; 500 g ai/ha): 100; Plant response rating, Kochia (kochia (Kochia scoparia) [8]; 500 g ai/ha): 50; Plant response rating, Foxtail, Giant ([9]; 500 g ai/ha): 100; Plant response rating, Foxtail, Giant ([10]; 500 g ai/ha): 30; Plant response rating, Ragweed ([11]; 500 g ai/ha): 0; Plant response rating, Blackgrass ([12]; 500 g ai/ha): 20; Plant response rating, Galium ([13]; 500 g ai/ha): 80; Plant response rating, Ryegrass, Italian ([15]; 500 g ai/ha): 20; Plant response rating, Barnyardgrass ([16]; 500 g ai/ha): 30; Plant response rating, Wheat ([17]; 500 g ai/ha): 10; Plant response rating, Pigweed ([18]; 500 g ai/ha): 90

Source: US10485235B2, “Aryloxypyrimidinyl ethers as herbicides” (FMC Corporation, priority 2015, dated 2019)
